# Laboratory results from US20130053435A1, “Methods of Treating Alcohol Intoxication, Alcohol Use Disorders and Alcohol Abuse Which Comprises the Administration of Dihydromyricetin” (priority 2011, published 2013).
# “And” between values parts separate entries of the source, which are not always exact repeats. Equal entries are not always repeated. Where two headings read alike, the source gives them in different places.
# How the values were obtained:
# [1] = test system: EtOH-induced LORR in rats
# Protocol: See Kakihana R, et al. (1966) Science 154(756):1574-1575). Briefly, after drug injection, rats were placed in the supine position in a V-shaped support. LORR onset time was taken from the endpoint of drug injection (i.p.). LORR duration ended when the animal was able to flip over three times in 30 s. LORR assays were blindly performed. LORR durations were reported as mean (min)±SEM.
# Further LORR assays were conducted as follows.
# Additional pre-treatment and post-treatment experiments were also conducted.
# See Hunkeler, W., et al. (1981) Nature 290:514-516.
# [2] = test system: PTZ-induced seizures in rats; assay: PTZ-induced seizures after EtOH withdrawal; type: in vivo, rat; settings: for PTZ-induced seizure duration: FIG. 12C
# Protocol: Pentylenetetrazol (PTZ)-induced seizures were also measured in rats. […] PTZ dose used in this study (42 mg/kg in saline) was determined as the dose that induced seizures in 75% naïve rats. Briefly, after i.p. injection of PTZ, the time to onset and the duration of tonic-clonic seizures was determined as described previously. The researchers who conducted the animal behavior experiments were blind to treatment groups. Animals were used once only for any determination.
# 48 hr after injection, rats were sub-divided into 3 groups to measure signs of EtOH withdrawal.
# As described herein, hyperexcitability was assayed with PTZ-induced seizures duration (FIG. 12C). PTZ induced 0.9±0.2 min seizures in subjects of the vehicle group and 6.5±1.1 min seizures in subjects of the EtOH group.
# GABAARs [3] = test system: T1, GABAARs; assay: Whole-cell patch-clamp, DGCs in hippocampal slices, acute drug application; type: cell-based, rat
# T1 construct: DHM-enhanced Itonic; EC50 on GABAAR-mediated Itonic; other: control (vehicle) cultured neurons, DIV14; other: cultured neurons with EtOH exposure/withdrawal (60 mM, 30 min, 24 hr); EtOH-potentiated Itonic; GABAAR-mediated Ito
# Protocol: (§1) Transverse slices (400 μm) of dorsal hippocampus were obtained with a Vibratome (VT 100, Technical Products International, St. Louis, Mo.) and standard techniques known in the art. Slices were continuously perfused with artificial cerebrospinal fluid (ACSF).
# (§2) Signals were recorded in voltage-clamp mode with a […] amplifier (Molecular Devices, Sunnyvale, Calif.). Whole cell access resistances were in the range of <25 MΩ before electrical compensation by about 70%. During voltage-clamp recordings, access resistance was monitored by measuring the size of the capacitative transient in response to a 5 mV step command and the data were abandoned if changes >20% were encountered. At least 10 min was allowed for equilibration of the pipette solution with the intracellular milieu before commencing mIPSC recordings.
# (§3) Data were analyzed using the Clampfit (Version 9.0, Molecular Devices) and the MiniAnalysis Program (versions 6.0.7, Synaptosoft, Decatur, Ga.).
# (§4) The MiniAnalysis program (Synaptosoft, Decatur, Ga.) was used to analyze mIPSCs. Itonic is the averaged baseline currents of a given recording period. Itonic amplitude was calculated as the difference between the holding currents measured before and after picrotoxin (100 μM) or bicuculline (10 μM). […] Briefly, the recordings were low-pass filtered off-line (Clampfit software) at 2 kHz. The mIPSCs were detected (Mini Analysis Program, version 6.0.7) with threshold criteria of 8 pA amplitude and 20 pA*ms charge transfer. The frequency of mIPSCs was determined from all automatically detected events in a given 100 s recording period. For kinetic analysis, only single event mIPSCs with a stable baseline, sharp rising phase (10 to 90% rise time), and exponential decay were chosen during visual inspection of the recording trace. Double and multiple peak mIPSCs were excluded. At least 100 individual mIPSC events were recorded under each experimental condition. The mIPSC kinetics was obtained from analysis of the averaged chosen single events aligned with half rise time in each cell. Decay time constants were obtained by fitting a double exponential to the falling phase of the averaged mIPSCs. Itonic magnitudes were obtained from the averaged baseline current of a given recording period. Itonic amplitude was calculated as the difference between the holding currents measured before and after the application of picrotoxin (50 μM) or bicuculline (10 μM). […] The investigator performing the recordings and mIPSC analysis was blind to the treatment (vehicle, EtOH, E+D, or D) that the rats received.
# (§5) As performed previously, whole-cell patch-clamp recordings in dentate gyms granule cells (DGCs) from hippocampal slices in vitro were conducted.
# GABAARs [4] = test system: T2, GABAARs; assay: as above; type: cell-based, rat; settings: in the presence of 60 mM EtOH, rat hippocampal slices
# T2 construct: other: in the presence of 60 mM EtOH, rat hippocampal; shift of the GABA concentration-response curve
# Protocol: as §1, §2, §3, §4, §5
# [5] = DHM 1 mg/kg i.p. 30 min after EtOH i.p.
# [6] = DHM 1 mg/kg i.p. 30 min prior to EtOH 3 g/kg i.p.
smiles,measurement,setting,value
"O=C1c2c(O)cc(O)cc2O[C@H](c2cc(O)c(O)c(O)c2)[C@H]1O [DHM, (2R,3R)-3,5,7-trihydroxy-2-(3,4,5-trihydroxyphenyl)-2,3-dihydrochromen-4-one]",LORR duration remaining from DHM injection,[1]; [5],21 ± 2 min and 19 ± 1.0 min
same,"remaining LORR, % of control (E+saline)",[1]; [5],41.2±3.8% and 42%
same,LORR duration (total),[1]; DHM 1 mg/kg i.p. 30 min after EtOH i.p. (b63 prints 3 mg/kg),49 ± 2 min
same,LORR duration,[1]; [6],8 ± 4 min and 8.2 ± 4.1 min
same,"LORR duration, % of control",[1]; [6],10.6±5.9 % of control
same,"LORR duration, % of control",[1]; co-administration DHM 1 mg/kg i.p. with EtOH i.p.,1.2±0.6 % of control
same,LORR duration,[1]; co-injection DHM 3 mg/kg and EtOH 3 g/kg i.p.,2.7 ± 1.7 min
same,EtOH-induced LORR duration in female rats,"[1]; female rats, combined treatment DHM 1 mg/kg i.p. with EtOH 3 g/kg i.p.",reduction
same,PTZ-seizure duration,[2]; 24 hr after DHM 1 mg/kg i.p. alone,did not induce any significant or observable changes in seizure duration
same,PTZ seizure incidence,[2]; 24 hr withdrawal from DHM+EtOH,85%
same,PTZ-seizure duration,"[2]; 24 hr withdrawal from DHM+EtOH (1 mg/kg+3 g/kg, i.p.), PTZ 42 mg/kg",0.9 ± 0.2 min
same,PTZ-induced seizure duration,"[2]; 48 hr withdrawal, EtOH+DHM group",1.7 ± 0.8 min
same,PTZ-induced seizure duration,"[2]; 48 hr, DHM group",0.6 ± 0.4 min
same,"EtOH intoxication/withdrawal-induced increases in PTZ-induced seizure duration and incidence, female rats","[2]; female rats, co-administration of DHM+EtOH","inhibits, reduces and/or prevents"
same,GABAAR-mediated Itonic,"GABAARs [3]; DHM 0.3 μM, DGCs from naïve rats",29.0±6.7 pA
same,Itonic,"GABAARs [3]; DHM 1 μM, DGCs in hippocampal slices",44.0±4.1 pA
same,Itonic in presence of DHM plus EtOH,GABAARs [3]; DHM (0.3 μM) followed by co-application of 60 mM EtOH,44.4±3.6 pA
same,Itonic in presence of DHM before EtOH,"GABAARs [3]; DHM (0.3 μM, FIG. 3 panel c) before EtOH",41.1±2.2 pA
same,EtOH-potentiated Itonic,GABAARs [3]; EtOH 60 mM + DHM 3 μM,21.0±0.9 pA
same,EtOH-potentiated Itonic,GABAARs [3]; EtOH 60 mM followed by co-application of 1 μM DHM,32.0±2.0 pA
same,effect on extrasynaptic GABAAR-mediated tonic current (Itonic),"GABAARs [3]; comparative experiments, rat hippocampal slices",potentiates
same,block of EtOH potentiation of GABAAR-mediated Itonic and mIPSCs,GABAARs [4],dose-dependently blocks
